Measurements as given in patent US12371429B2, “Antibiotic resistance-modifying tricyclic heteroaryl compounds and uses thereof” (Recreo Pharmaceuticals LLC, priority 2018, dated 2025).
≈ marks a conversion by molar mass, not a printed value. Like-named read-outs stand apart in the source and are kept apart here.

Key:
MRSA strain BAA-44 [1] = experiment: MIC determination, broth microdilution; assay type: cell-based, Staphylococcus aureus
Description: (§1) Bacterial strains representing pathogenic species of clinical concern, the so called ESKAPE pathogens, were selected for MIC studies using compounds A and B. The results are shown in Table A. These species are from the families or genera Enterococcus, Staphylococcus, Klebsiella, Acinetobacter, Pseudomonas, and Enterobacteriaceae. Specifically, Enterococcus faecium HM-204 and HM-460, Staphylococcus aureus strains NRS384 and COL, Klebsiella pneumoniae strains NR-48976 and NR-48977, Acinetobacter baumannii strains NR-17783 and NR-19299, Pseudomonas aeruginosa strain NR-48982 and Salmonella enterica strains NR-22067 and NR-22068 were purchased from BEI resources. Escherichia coli strain ATCC 25922, and the Staphylococcus aureus (S. aureus) strains ATCC 25923 (MSSA) and ATCC BAA-44 (MRSA) were purchased from the American Type Culture Collection (ATCC).
(§2) General Procedure for Minimal inhibitory concentration (MIC) determination. The minimal inhibitory concentrations (MICS) of antimicrobial compounds A, B, and C were determined by the broth microdilution method detailed in the Clinical and Laboratory Standards Institute handbook (Cockerill and Clinical and Laboratory Standards Institute, Methods for Dilution Antimicrobial Susceptibility Tests for Bacteria That Grow Aerobically). All antimicrobial compounds were purchased from Sigma-Aldrich. The growth media used for all MIC experiments, except those for Enterococcus faecium, was Mueller Hinton Broth (MHB) purchased from HIMEDIA through VWR (cat: 95039-356). For experiments using Enterococcus faecium, the growth and susceptibility medium was BD Bacto™ Brain Heart Infusion (BHI) Broth purchased from VWR (cat: 90003-040). USA Scientific CytoOne 96-well Clear Tissue Culture assay plates (cat: CC7682-7596) were used for all MIC and MRC experiments. MIC assay plates were prepared by diluting the antibiotic to be tested in a 2-fold series down the assay plate. A total of 8 concentrations of each compound were tested in triplicate. Compounds were prepared in 180 μL at 2× the intended final concentrations in MHB or BHI and 2% DMSO.
(§3) The bacterial inoculum was prepared by selecting 5-7 colonies from an agar plate to make a day culture in BHI of the bacterial species to be assayed. This was grown at 37° C. for 2-4 hours. After having reached the mid-logarithmic growth phase (OD600 0.15-0.4), the day culture was diluted in the appropriate assay medium (MHB or BHI) to OD600 0.002. 100 μL of this inoculum was added to each experimental well of the 96-well assay plate resulting in an additional two-fold dilution of the bacterial culture and an initial OD600 of 0.001 in the assay plate, a final volume of 200 μL and the intended compound concentrations in 1% DMSO. MIC assay plates were then incubated at 37° C. with shaking for 18 hours.
(§4) The MICs were determined as defined in the Clinical and Laboratory Standards Institute handbook. After overnight growth, Plates were read by eye and 600 nm absorbance read using a BioTek Epoch2 Microplate Spectrophotometer (BioTek).

[2] = tested on: Staphylococcus aureus (MRSA, NRS384); experiment: MIC determination, broth microdilution; assay type: cell-based
Description: as §1, §2, §3, §4

MRSA strain BAA-44 [3] = experiment: Antibiotic MICs in the presence of Compound C; assay type: cell-based, Staphylococcus aureus; details: MRSA BAA-44; in the presence of 5 mg/L Compound C
Experimental: as §2, §3, §4
(§5) Determination of Antibiotic MICs in the Presence of Compound C against MRSA and MSSA. Methicillin-resistant S. aureus (MRSA) strain ATCC BAA-44 and the methicillin-sensitive S. aureus (MSSA) strain ATCC 25923 were used to determine the MIC values of various antimicrobial compounds in the presence of 5 μg/mL Compound C. […] The test antibiotics were then diluted into assay plates as described earlier. The final concentration of Compound C after inoculation with BAA-44 was 5 μg/mL. MIC values were determined by the methods described above.

MRSA strain NRS-384 [4] = experiment: Antibiotic MICs in the presence of Compound C; assay type: cell-based, Staphylococcus aureus; details: MRSA NRS-384; in the presence of 5 mg/L Compound C
Experimental: [The source words this procedure for another variant and reports this variant under the same test.] as §2, §3, §4, §5

MRSA strain ATCC-33592 [5] = experiment: MIC determination, broth microdilution; assay type: cell-based, Staphylococcus aureus; details: MRSA strain ATCC-33592 (Table C)
Experimental: as §2, with “Compounds were prepared in 180 μL at 2× the intended final concentrations in MHB or BHI and 2% DMSO.” left out
as §4

MRSA strain ATCC 700789 [6] = experiment: MIC determination, broth microdilution; assay type: cell-based, Staphylococcus aureus; details: MRSA strain ATCC 700789 (Table C)
Experimental: as §2, with “Compounds were prepared in 180 μL at 2× the intended final concentrations in MHB or BHI and 2% DMSO.” left out
as §4

MRSA strain BAA-44 [7] = experiment: Minimal re-sensitizing concentration (MRC) determination; assay type: cell-based, Staphylococcus aureus
Experimental: (§6) Minimal re-sensitizing concentration (MRC) determination. Antibiotic MIC breakpoint values where S. aureus is considered susceptible were determined from the CLSI handbook supplement. MHB was supplemented with the antibiotic at a concentration two-fold greater than the CLSI susceptible MIC value. Two-fold serial dilutions of Compound C were prepared in antibiotic supplemented media in 96-well microplates. These were inoculated with MRSA diluted to OD600 0.002 and incubated at 37° C. with shaking for 18 hours before results were interpreted. The concentration of […] in antibiotic supplemented media at which there was no observable growth was considered the minimum re-sensitizing concentration (MRC).

MRSA strain ATCC-33592 [8] = experiment: as above; assay type: cell-based, Staphylococcus aureus
Experimental: as §6

MRSA strain ATCC 700789 [9] = experiment: as above; assay type: cell-based, Staphylococcus aureus
Experimental: as §6

MRSA strain NRS-384 [10] = experiment: as above; assay type: cell-based, Staphylococcus aureus
Experimental: as §6

[11] = Staphylococcus aureus, MRSA BAA-44, in the absence of Compound C, read-out: MIC mg/L (BAA-44)
[12] = Staphylococcus aureus, MRSA NRS-384, in the absence of Compound C, read-out: MIC mg/L (NRS-384)
[13] = medium supplemented with amox/clav
[14] = medium supplemented with cefazolin

Row | Structure (SMILES) | MIC (MRSA strain BAA-44 [1]; [11]) [mg/L] | MIC [2, 12] [mg/L] | MIC (BAA-44) (+5 mg/L Compound C) (MRSA strain BAA-44 [3]) [µg/mL] | MIC (NRS-384) (+5 mg/L Compound C) (MRSA strain NRS-384 [4]) [µg/mL] | further results
1 | Cc1nnc(SCC2=C(C(=O)O)N3C(=O)[C@@H](NC(=O)Cn4cnnn4)[C@H]3SC2)s1 [Cefazolin, reference compound] | 128 (≈ 282 µM) | 64 (≈ 141 µM) | <2 | <2 | –
2 | CCC[C@@H]1C[C@@H](C(=O)N[C@@H]([C@H]2O[C@H](SC)[C@H](O)[C@@H](O)[C@H]2O)[C@H](C)Cl)N(C)C1 [Clindamycin] | > 4 | 0.125 (≈ 0.294 µM) | >4 | <0.03125 | –
3 | O=C(c1ccc(Cl)cc1)N1CCc2c([nH]c3ccc(Cl)cc23)C1 [Compound C] | > 100 | > 100 | – | – | MIC (MRSA strain BAA-44 [1]; MRSA strain BAA-44 (Table C)): 64 mg/L (≈ 185 µM); MIC (MRSA strain ATCC-33592 [5]): 4 µg/mL (≈ 11.6 µM); MIC (MRSA strain ATCC 700789 [6]): > 64 µg/mL; MRC to Amox/clav (MRSA strain BAA-44 [7]; medium supplemented with amox/clav at two-fold greater than the CLSI susceptible MIC): 4; MRC to Cefazolin (MRSA strain BAA-44 [7]; medium supplemented with cefazolin at two-fold greater than the CLSI susceptible MIC): 4; MRC to Amox/clav (MRSA strain ATCC-33592 [8]; [13]): 2; MRC to Cefazolin (MRSA strain ATCC-33592 [8]; [14]): 2; MRC to Amox/clav (MRSA strain ATCC 700789 [9]; [13]): 4; MRC to Cefazolin (MRSA strain ATCC 700789 [9]; [14]): 4; MRC to Amox/clav (MRSA strain NRS-384 [10]; [13]): 2; MRC to Cefazolin (MRSA strain NRS-384 [10]; [14]): 4; MIC ([2]; MRSA strain NRS-384 (Table C)): > 64 mg/L
4 | Cc1onc(-c2ccccc2)c1C(=O)N[C@@H]1C(=O)N2[C@@H]1SC(C)(C)[C@@H]2C(=O)O [Oxacillin, reference compound] | 64 (≈ 159 µM) | 64 (≈ 159 µM) | <2 | <2 | –
5 | CN(C)[C@@H]1C(O)=C(C(N)=O)C(=O)[C@@]2(O)C(O)=C3C(=O)c4c(O)cccc4[C@@](C)(O)[C@H]3C[C@@H]12 [Tetracycline] | 16 (≈ 36 µM) | 8 (≈ 18 µM) | 4 | 4 | –
6 | CN[C@H](CC(C)C)C(=O)N[C@H]1C(=O)N[C@@H](CC(N)=O)C(=O)N[C@H]2C(=O)N[C@H]3C(=O)N[C@H](C(=O)N[C@H](C(=O)O)c4cc(O)cc(O)c4-c4cc3ccc4O)[C@H](O)c3ccc(c(Cl)c3)Oc3cc2cc(c3O[C@@H]2O[C@H](CO)[C@@H](O)[C@H](O)[C@H]2O[C@H]2C[C@](C)(N)[C@H](O)[C@H](C)O2)Oc2ccc(cc2Cl)[C@H]1O [Vancomycin] | – | – | 0.5 | 0.5 | MIC (MRSA strain BAA-44 [1]; Staphylococcus aureus, read-out: MIC mg/L (BAA-44)): 1 mg/L (≈ 0.69 µM); MIC ([2]; Staphylococcus aureus, read-out: MIC mg/L (NRS-384)): 1 mg/L (≈ 0.69 µM)

Now from value to compound, other results behind:

Row | MIC (MRSA strain BAA-44 [1]; [11]) [mg/L] | MIC [2, 12] [mg/L] | MIC (BAA-44) (+5 mg/L Compound C) (MRSA strain BAA-44 [3]) [µg/mL] | MIC (NRS-384) (+5 mg/L Compound C) (MRSA strain NRS-384 [4]) [µg/mL] | Structure (SMILES) | further results
7 | 1 (≈ 2.96 µM) | 2 (≈ 5.93 µM) | 0.5 | 1 | CC(=O)NC[C@H]1CN(c2ccc(N3CCOCC3)c(F)c2)C(=O)O1 [Linezolid] | –
8 | 16 (≈ 41.7 µM) | 8 (≈ 20.9 µM) | <0.25 | <0.25 | C[C@@H](O)[C@H]1C(=O)N2C(C(=O)O)=C(S[C@@H]3CN[C@H](C(=O)N(C)C)C3)[C@H](C)[C@H]12 [Meropenem, reference compound] | –
9 | > 256 | 256 (≈ 673 µM) | 4 | 8 | COc1cccc(OC)c1C(=O)N[C@@H]1C(=O)N2[C@@H]1SC(C)(C)[C@@H]2C(=O)O [Methicillin, reference compound] | –
10 | 1 (≈ 1.22 µM) | < 0.0312 | – | <0.03125 | CO[C@H]1/C=C/O[C@@]2(C)Oc3c(C)c(O)c4c(O)c(c(/C=N/N5CCN(C)CC5)c(O)c4c3C2=O)NC(=O)/C(C)=C\C=C\[C@H](C)[C@H](O)[C@@H](C)[C@@H](O)[C@@H](C)[C@H](OC(C)=O)[C@@H]1C [Rifampicin] | –
11 | > 32 | 8 (≈ 13.8 µM) | >32 | 1 | [H]/N=C(/N)N[C@H]1[C@H](O)[C@@H](O)[C@H](O[C@@H]2O[C@@H](C)[C@](O)(C=O)[C@H]2O[C@@H]2O[C@@H](CO)[C@H](O)[C@@H](O)[C@@H]2NC)[C@@H](N/C(N)=N\[H])[C@@H]1O [Streptomycin] | –
